Laboratory results from patent US20240108006A1, “PESTICIDALLY ACTIVE HETEROAROMATIC COMPOUNDS” (SYNGENTA CROP PROTECTION AG, priority 2021, published 2024).

How the values were obtained:
Assay type in all cases: in vivo
Diabrotica balteata = assay: Example B2: Diabrotica balteata (corn root worm), maize sprouts, L2 larvae; conditions: 96 h, application rate of 200 ppm, 4 days after infestation, read-out: control in at least one of the two categories (mortality or growth inhibition)
Method in brief: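 Maize sprouts on agar sprayed with aqueous test solutions made from 10,000 ppm DMSO stocks, dried, then infested with 6 to 10 L2 larvae per well. Mortality and growth inhibition assessed versus untreated samples 4 days after infestation; application rate 200 ppm.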

Plutella xylostella [1] = assay: Example B12: Plutella xylostella (diamondback moth), artificial diet 96-well; conditions: 216 h, application rate of 500 ppm, 9 days after infestation
Protocol: Example B12: Plutella xylostella (Diamondback Moth)
96-well microtiter plates containing artificial diet were treated with aqueous test solutions, prepared from 10,000 ppm DMSO stock solutions, by a liquid handling robot. After drying, eggs (-30 per well) were infested onto a netted lid which was suspended above the diet. The eggs hatch and L1 larvae move down to the diet. The samples were assessed for mortality 9 days after infestation.
The following compounds gave an effect of at least 80% average mortality at an application rate of 500 ppm: […]

Chilo suppressalis = assay: Example B1: Chilo suppressalis (striped rice stemborer), artificial diet, L2 larvae; conditions: 144 h, application rate of 200 ppm, 6 days after infestation, read-out: control in at least one of the three categories (mortality, anti-feedant effect, or growth inhibition)
Method in brief: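 Artificial diet was treated with aqueous test solutions made from 10,000 ppm DMSO stocks, dried, then infested with L2 larvae (6-8 per well). Mortality, anti-feeding effect and growth inhibition were scored against untreated samples 6 days after infestation, and control was counted when any category exceeded untreated.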

Spodoptera littoralis [2] = assay: Example B9: Spodoptera littoralis (Egyptian cotton leaf worm), cotton leaf discs, L1 larvae; conditions: foliar, 72 h, application rate of 200 ppm, 3 days after infestation, read-out: control in at least one of the three categories (mortality, anti-feedant effect, or growth inhibition)
Method in brief: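 Cotton leaf discs on agar sprayed with aqueous test solutions from 10,000 ppm DMSO stocks, dried, then infested with five L1 larvae. Mortality, anti-feeding and growth inhibition scored against untreated samples 3 days after infestation.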

Plutella xylostella [3] = assay: Example B8: Plutella xylostella (diamond back moth), artificial diet 24-well, eggs; conditions: 192 h, application rate of 200 ppm, 8 days after infestation, read-out: effect in at least one of the two categories (mortality or growth inhibition)
Method in brief: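 Artificial diet in 24-well plates treated with aqueous dilutions of DMSO stock (10,000 ppm stock) and dried, then infested with Plutella eggs. Mortality and growth inhibition scored versus untreated samples 8 days after infestation.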

Euschistus heros = assay: Example B3: Euschistus heros (neotropical brown stink bug), soybean leaves, N2 nymphs; conditions: 120 h, application rate of 200 ppm, 5 days after infestation, read-out: control in at least one of the two categories (mortality or growth inhibition)
Protocol: Example B3: Euschistus heros (Neotropical Brown Stink Bug)
Soybean leaves on agar in 24-well microtiter plates were sprayed with aqueous test solutions prepared from 10,000 ppm DMSO stock solutions. After drying the leaves were infested with N2 nymphs. The samples were assessed for mortality and growth inhibition in comparison to untreated samples 5 days after infestation.
The following compounds gave an effect of at least 80% control in at least one of the two categories (mortality or growth inhibition) at an application rate of 200 ppm: […]

Spodoptera littoralis [4] = assay: Example B10: Spodoptera littoralis (Egyptian cotton leaf worm), uptake by lettuce roots from agar; conditions: 144 h, test rate of 12.5 ppm, 6 days after infestation, read-out: effect in at least one of the three categories (mortality, anti-feeding, or growth inhibition)
Excerpt: Example B10: Spodoptera littoralis (Egyptian Cotton Leaf Worm)
Test compounds were applied by pipette from 10,000 ppm DMSO stock solutions into 24-well plates and mixed with agar. Lettuce seeds were placed onto the agar and the multi well plate was closed by another plate which also contained agar. After 7 days the compound was absorbed by the roots and the lettuce grew into the lid plate. The lettuce leaves were then cut off into the lid plate. Spodoptera eggs were pipetted through a plastic stencil onto a humid gel blotting paper and the lid plate was closed with it. The samples were assessed for mortality, anti-feedant effect and growth inhibition in comparison to untreated samples 6 days after infestation.
The following compounds gave an effect of at least 80% in at least one of the three categories (mortality, anti-feeding, or growth inhibition) at a test rate of 12.5 ppm: […]

Myzus persicae [5] = assay: Example B11: Myzus persicae (green peach aphid), sucrose solution 96-well; conditions: 120 h, application rate of 50 ppm, 5 days after infestation
Excerpt: Example B11: Myzus persicae (Green Peach Aphid)
Test compounds prepared from 10,000 ppm DMSO stock solutions were applied by a liquid handling robot into 96-well microtiter plates and mixed with a sucrose solution. Parafilm was stretched over the 96-well microtiter plate and a plastic stencil with 96 holes was placed onto the plate. Aphids were sieved into the wells directly onto the Parafilm. The infested plates were closed with a gel blotting card and a second plastic stencil and then turned upside down. The samples were assessed for mortality 5 days after infestation.

Myzus persicae [6] = assay: Example B7: Myzus persicae (green peach aphid), intrinsic activity, sucrose solution 24-well; conditions: 120 h, application rate of 12.5 ppm, 5 days after infestation, read-out: control (mortality)
Method in brief: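 Compounds from 10,000 ppm DMSO stocks were mixed into sucrose solution in wells at a rate of 12.5 ppm. Aphid-infested pea seedlings were placed on a Parafilm membrane over the solution, so aphids fed through it. Mortality was scored 5 days after infestation.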

Myzus persicae [7] = assay: Example B5: Myzus persicae (green peach aphid), feeding/contact activity; conditions: 144 h, application rate of 200 ppm, 6 days after infestation
Protocol: Example B5: Myzus persicae (Green Peach Aphid):Feeding/Contact Activity
Sunflower leaf discs were placed onto agar in a 24-well microtiter plate and sprayed with aqueous test solutions prepared from 10,000 ppm DMSO stock solutions. After drying, the leaf discs were infested with an aphid population of mixed ages. The samples were assessed for mortality 6 days after infestation.

[8] = test system: Frankliniella occidentalis; assay: Example B4: Frankliniella occidentalis (western flower thrips), feeding/contact activity; conditions: 168 h, application rate of 200 ppm, 7 days after infestation
Protocol: Example B4: Frankliniella occidentalis (Western Flower Thrips):Feeding/Contact Activity
Sunflower leaf discs were placed on agar in 24-well microtiter plates and sprayed with aqueous test solutions prepared from 10,000 DMSO stock solutions. After drying the leaf discs were infested with a Frankliniella population of mixed ages. The samples were assessed for mortality 7 days after infestation.

Myzus persicae [9] = assay: Example B6: Myzus persicae (green peach aphid), systemic activity, pea seedlings; conditions: 144 h, test rate of 24 ppm, 6 days after placing seedlings into test solutions
Protocol: Example B6: Myzus persicae (Green Peach Aphid). Systemic Activity
Roots of pea seedlings infested with an aphid population of mixed ages were placed directly into aqueous test solutions prepared from 10,000 DMSO stock solutions. The samples were assessed for mortality 6 days after placing seedlings into test solutions.

Tetranychus urticae = assay: Example B13: Tetranychus urticae (two-spotted spider mite), feeding/contact activity; conditions: 192 h, read-out: mortality on mixed population (mobile stages)
Protocol: Example B13: Tetranychus urticae (Two-Spotted Spider Mite):Feeding/Contact Activity
Bean leaf discs on agar in 24-well microtiter plates were sprayed with aqueous test solutions prepared from 10,000 ppm DMSO stock solutions. After drying the leaf discs were infested with a mite population of mixed ages. The samples were assessed for mortality on mixed population (mobile stages) 8 days after infestation.

CC(NC(=O)Nc1ccc(C(F)(F)F)cc1Cl)c1ncnn1-c1ccc(C#N)cn1 (stereo not drawn) [Example P4, 1-[2-chloro-4-(trifluoromethyl)phenyl]-3-[1-[2-(5-cyano-2-pyridyl)-1,2,4-triazol-3-yl]ethyl]urea]
≥ 80%: percent control (mortality or growth inhibition) at 200 ppm (Diabrotica balteata) | mortality at 500 ppm (Plutella xylostella [1]) | percent control (mortality, anti-feedant effect or growth inhibition) at 200 ppm (Chilo suppressalis) | percent control (mortality, anti-feedant effect or growth inhibition) at 200 ppm (Spodoptera littoralis [2]) | percent effect (mortality or growth inhibition) at 200 ppm (Plutella xylostella [3])

CC(NC(=O)Nc1ccc(C(F)(F)F)cc1Cl)c1ncnn1-c1ncccn1 (stereo not drawn) [Example P5, 1-[2-chloro-4-(trifluoromethyl)phenyl]-3-[1-(2-pyrimidin-2-yl-1,2,4-triazol-3-yl)ethyl]urea]
≥ 80%: percent control (mortality or growth inhibition) at 200 ppm (Euschistus heros) | percent control (mortality or growth inhibition) at 200 ppm (Diabrotica balteata) | mortality at 500 ppm (Plutella xylostella [1]) | percent effect (mortality, anti-feeding or growth inhibition) at 12.5 ppm (Spodoptera littoralis [4]) | percent control (mortality, anti-feedant effect or growth inhibition) at 200 ppm (Chilo suppressalis) | percent control (mortality, anti-feedant effect or growth inhibition) at 200 ppm (Spodoptera littoralis [2]) | mortality at 50 ppm (Myzus persicae [5]) | percent effect (mortality or growth inhibition) at 200 ppm (Plutella xylostella [3]) | mortality at 12.5 ppm (Myzus persicae [6])

CC(NC(=O)Nc1ccc(Cl)cc1C(F)(F)F)c1ncnn1-c1ncccn1 (stereo not drawn) [Example P6, 1-[4-chloro-2-(trifluoromethyl)phenyl]-3-[1-(2-pyrimidin-2-yl-1,2,4-triazol-3-yl)ethyl]urea]
≥ 80%: percent control (mortality or growth inhibition) at 200 ppm (Diabrotica balteata) | mortality at 500 ppm (Plutella xylostella [1]) | percent control (mortality, anti-feedant effect or growth inhibition) at 200 ppm (Chilo suppressalis) | percent control (mortality, anti-feedant effect or growth inhibition) at 200 ppm (Spodoptera littoralis [2]) | mortality at 50 ppm (Myzus persicae [5]) | percent effect (mortality or growth inhibition) at 200 ppm (Plutella xylostella [3]) | mortality at 12.5 ppm (Myzus persicae [6])

C[C@H](NC(=O)Nc1cc(OC(F)(F)C(F)F)c(Cl)cc1Cl)c1ncnn1-c1ncccn1 [Example P46, 1-[2,4-dichloro-5-(1,1,2,2-tetrafluoroethoxy)phenyl]-3-[(1S)-1-(2-pyrimidin-2-yl-1,2,4-triazol-3-yl)ethyl]urea]
≥ 80%: percent control (mortality or growth inhibition) at 200 ppm (Euschistus heros) | percent control (mortality or growth inhibition) at 200 ppm (Diabrotica balteata) | mortality at 200 ppm (Myzus persicae [7]) | percent control (mortality, anti-feedant effect or growth inhibition) at 200 ppm (Chilo suppressalis) | percent control (mortality, anti-feedant effect or growth inhibition) at 200 ppm (Spodoptera littoralis [2]) | mortality at 50 ppm (Myzus persicae [5]) | percent effect (mortality or growth inhibition) at 200 ppm (Plutella xylostella [3]) | mortality at 12.5 ppm (Myzus persicae [6])

C[C@H](NC(=O)Nc1cnc(C(F)(F)F)cc1Cl)c1ncnn1-c1ncccn1 [Example P103, 1-[4-chloro-6-(trifluoromethyl)-3-pyridyl]-3-[(1S)-1-(2-pyrimidin-2-yl-1,2,4-triazol-3-yl)ethyl]urea]
≥ 80%: percent control (mortality or growth inhibition) at 200 ppm (Euschistus heros) | percent control (mortality or growth inhibition) at 200 ppm (Diabrotica balteata) | mortality at 200 ppm (Myzus persicae [7]) | mortality at 200 ppm [8] | percent control (mortality, anti-feedant effect or growth inhibition) at 200 ppm (Chilo suppressalis) | percent control (mortality, anti-feedant effect or growth inhibition) at 200 ppm (Spodoptera littoralis [2]) | mortality at 50 ppm (Myzus persicae [5]) | percent effect (mortality or growth inhibition) at 200 ppm (Plutella xylostella [3]) | mortality at 24 ppm (Myzus persicae [9]) | mortality at 12.5 ppm (Myzus persicae [6])

C[C@H](NC(=O)N(C)c1cnc(C(F)(F)F)cc1Cl)c1ncnn1-c1ncccn1 [Example P235, 1-[4-chloro-6-(trifluoromethyl)-3-pyridyl]-1-methyl-3-[(1S)-1-(2-pyrimidin-2-yl-1,2,4-triazol-3-yl)ethyl]urea]
≥ 80%: percent control (mortality or growth inhibition) at 200 ppm (Euschistus heros) | mortality at 200 ppm (Myzus persicae [7]) | mortality at 200 ppm [8] | percent control (mortality, anti-feedant effect or growth inhibition) at 200 ppm (Chilo suppressalis) | percent effect (mortality or growth inhibition) at 200 ppm (Plutella xylostella [3]) | mortality at 24 ppm (Myzus persicae [9]) | mortality at 12.5 ppm (Myzus persicae [6])

C[C@H](NC(=O)Nc1cnc(C(F)(F)F)cc1Cl)c1ncnn1-c1cnccn1 [Example P277, 1-[4-chloro-6-(trifluoromethyl)-3-pyridyl]-3-[(1S)-1-(2-pyrazin-2-yl-1,2,4-triazol-3-yl)ethyl]urea]
≥ 80%: mortality at 200 ppm (Tetranychus urticae) | percent control (mortality or growth inhibition) at 200 ppm (Euschistus heros) | percent control (mortality or growth inhibition) at 200 ppm (Diabrotica balteata) | mortality at 200 ppm (Myzus persicae [7]) | percent control (mortality, anti-feedant effect or growth inhibition) at 200 ppm (Chilo suppressalis) | percent control (mortality, anti-feedant effect or growth inhibition) at 200 ppm (Spodoptera littoralis [2]) | percent effect (mortality or growth inhibition) at 200 ppm (Plutella xylostella [3]) | mortality at 12.5 ppm (Myzus persicae [6])
